Experimental data as given in patent publication US20230255877A1, “COMPOSITION FOR IMPROVING SKIN COMPRISING STEAMED CITRUS PEEL EXTRACT AS ACTIVE INGREDIENT” (LG HOUSEHOLD & HEALTH CARE LTD., priority 2022, published 2023).

Experiments:
[1] = tested on: Raw264.7 cells; assay: NO production inhibition in lipopolysaccharide-treated Raw264.7 cells (GRIESS reagent); type: cell-based
Protocol: In order to confirm the anti-inflammatory effect of the citrus peel extracts, NO production inhibition rate was measured after the extracts were untreated, steamed for 30 minutes, or steamed for 8 hours. In order to culture Raw264.7 cells, a mixture of DMEM (Dulbecco's Modified Eagle's Medium) and FBS (Fetal Bovine Serum) was used as a basic medium, and the Raw264.7 cells were seeded into a 24-well plate at a concentration of 1 to 2×10^5 cells/mL and cultured for 24 hours. The medium was removed and the cells were starvated in serum-free medium for 12 hours, and thereafter, the DMSO lysate of each extract was treated so that the concentration was 200 ppm, and after 30 minutes, lipopolysaccharide was added at a concentration of 500 ng/ml and cultured for 18 hours. L-NMMA, a positive control, was treated at 20 ppm. After completion of the culture, the supernatant was taken and transferred to a 96-well plate, reacted at room temperature by adding the GRIESS reagent, and the absorbance at 540 nm was measured using an ELISA reader. The amount of NO inhibited compared to the control group was calculated as NO production inhibition rate (%), and the average value was calculated after the experiment was performed three times.
In order to identify the cause of the change in anti-inflammatory efficacy among the steamed citrus peel extract components, the NO production inhibition rates of hesperidin, a flavonoid glycone, and hesperetin, a a flavonoid aglycone, were compared (Table 13)

[2] = tested on: human dermal fibroblasts; assay: Collagen synthesis promotion in human dermal fibroblasts (procollagen 1α1 ELISA); type: cell-based
Protocol: In order to confirm the collagen synthesis promoting effect of the citrus peel extracts, the amount of additional collagen production was measured after the extracts were untreated, steamed for 30 minutes, or steamed for 8 hours. In order to culture human dermal fibroblasts, a mixture of DMEM and FBS was used as a basic medium, and the skin fibroblasts were seeded into a 48-well plate at a concentration of 2 to 5×10^4 cells/mL and cultured for 24 hours. The medium was removed, and the DMSO lysate of each extract was treated in serum-free medium so that the concentration was 100 ppm, and cultured for 24 hours. A positive control that promotes collagen synthesis was treated with TGF-β to a concentration of 5 ppb. The cell culture solution was taken and the synthesized collagen was measured using the Human procollagen 1α1 duoset ELISA Kit (R&D Systems) and ELISA reader. A calibration curve was prepared by measuring the isolated and purified collagen at concentrations of 0.25, 0.5, 1, 2, 4, and 8 ng/mL, and based on the results, the amount of collagen (Type I collagen) produced in the DMSO lysate of the citrus peel extracts was calculated. The amount of collagen produced compared to the control group (DMSO) was calculated as collagen production rate (%), and the average value was calculated after the experiment was performed three times (Table 14).
In order to identify the cause of the change in collagen synthesis promoting efficacy among the steamed citrus peel extract components, the amount of additional collagen production of hesperidin, a flavonoid glycone, and hesperetin, a flavonoid aglycone, was compared (Table 15).

COc1ccc([C@@H]2CC(=O)c3c(O)cc(O)cc3O2)cc1O [Hesperetin, hesperetin] showed an inhibition at 0.1 ppm ([1]; Mus musculus, RAW264.7, 0.1 ppm, read-out: NO Production Inhibition Rate) of -3%, an inhibition at 1 ppm ([1]; Mus musculus, RAW264.7, 1 ppm, read-out: NO Production Inhibition Rate) of 2.6% and an inhibition at 10 ppm ([1]; Mus musculus, RAW264.7, 10 ppm, read-out: NO Production Inhibition Rate) of 8.1%. The inhibition at 20 ppm ([1]; Mus musculus, RAW264.7, 20 ppm, read-out: NO Production Inhibition Rate) was 35.6%, the “Additional Collagen Production Rate” value ([2]; 0.1 ppm) was 17.0% and the “Additional Collagen Production Rate” value ([2]; 1 ppm) was 16.8%.

In the case of CNC(=N)NCCC[C@H](N)C(=O)O [L-NMMA], the “NO Production Inhibition Rate” value ([1]; positive control, 20 ppm, Table 12) is reported as 55.1% and the “NO Production Inhibition Rate” value ([1]; positive control, Table 13) is reported as 51.3%.

For “TGF-β: positive control that promotes collagen synthesis”, the “Additional Collagen Production Rate” value ([2]; positive control, 5 ppb, Table 14) was 25.2% and the “Additional Collagen Production Rate” value ([2]; positive control, Table 15) was 23.7%.

With COc1ccc([C@@H]2CC(=O)c3c(O)cc(O[C@@H]4O[C@H](CO[C@@H]5O[C@@H](C)[C@H](O)[C@@H](O)[C@H]5O)[C@@H](O)[C@H](O)[C@H]4O)cc3O2)cc1O [Hesperidin, hesperidin] the “NO Production Inhibition Rate” value ([1]; 0.1 ppm) was −5.5%, the “NO Production Inhibition Rate” value ([1]; 1 ppm) was 0.6% and the “NO Production Inhibition Rate” value ([1]; 10 ppm) was 1.8%. The “NO Production Inhibition Rate” value ([1]; 20 ppm) was 2.4%, the “Additional Collagen Production Rate” value ([2]; 0.1 ppm) was −0.2% and the “Additional Collagen Production Rate” value ([2]; 1 ppm) was 0.2%.
